Results as given in patent US6737383B1, “Herbicidal oxadiazolidines” (priority 1999, dated 2004).

Experiments:
[1] = system: bedstraw; assay: Test B pre/postemergence bedstraw; type: in vivo, Galium aparine
Method in brief: (§1)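 Test chemicals in a non-phytotoxic solvent mixture with surfactant were sprayed preemergence onto planted seeds and postemergence onto plants 2 to 18 cm tall (1- to 4-leaf stage). After twelve to sixteen days in a greenhouse, injury was visually rated against untreated controls from 0 (no effect) to 10 (complete control).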

[2] = system: duck salad; assay: Test B flood test duck salad; type: in vivo, Heteranthera limosa; settings: Pre-emergence
Method in brief: (§2)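 Plants were grown to the 2-leaf stage before treatment with test chemical, then held in a greenhouse for twelve to sixteen days. Injury was visually rated against untreated controls on a 0–10 scale, where 0 is no effect and 10 is complete control.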

[3] = system: corn; assay: Test B pre/postemergence corn; type: in vivo, Zea mays
Method in brief: as §1

[4] = system: sugar beet; assay: Test B pre/postemergence sugar beet; type: in vivo, Beta vulgaris
Method in brief: as §1

[5] = system: bamyardgrass; assay: Test B flood test barnyardgrass; type: in vivo, Echinochloa crus-galli; settings: Pre-emergence
Method in brief: as §2

[6] = system: purple nutsedge; assay: Test B pre/postemergence purple nutsedge; type: in vivo, Cyperus rotundus
Method in brief: as §1

[7] = system: rice; assay: Test B flood test rice; type: in vivo, Oryza sativa; settings: Pre-emergence
Method in brief: as §2

[8] = system: blackgrass; assay: Test B pre/postemergence blackgrass; type: in vivo, Alopecurus myosuroides
Method in brief: as §1

[9] = system: smallflower flatsedge; assay: Test B flood test smallflower flatsedge; type: in vivo, Cyperus difformis; settings: Pre-emergence
Method in brief: as §2

[10] = system: crabgrass; assay: Test B pre/postemergence crabgrass; type: in vivo, Digitaria sanguinalis
Method in brief: as §1

[11] = system: velvetleaf; assay: Test B pre/postemergence velvetleaf; type: in vivo, Abutilon theophrasti
Method in brief: as §1

[12] = system: soybean; assay: Test B pre/postemergence soybean; type: in vivo, Glycine max
Method in brief: as §1

[13] = system: wild oat; assay: Test B pre/postemergence wild oat; type: in vivo, Avena fatua
Method in brief: as §1

[14] = system: cocklebur; assay: Test B pre/postemergence cocklebur; type: in vivo, Xanthium strumarium
Method in brief: as §1

[15] = system: rape; assay: Test B pre/postemergence rape; type: in vivo, Brassica napus
Method in brief: as §1

[16] = system: wheat; assay: Test B pre/postemergence wheat; type: in vivo, Triticum aestivum
Method in brief: as §1

[17] = system: surinam grass; assay: Test B pre/postemergence surinam grass; type: in vivo, Brachiaria decumbens
Method in brief: as §1

[18] = Preemergence, Rate 62 g/ha, scale of 0 to 10 where 0 is no effect and 10 is complete control
[19] = Preemergence, Rate 250 g/ha, scale of 0 to 10 where 0 is no effect and 10 is complete control
[20] = Preemergence, Rate 500 g/ha, scale of 0 to 10 where 0 is no effect and 10 is complete control
[21] = Rate 62 g/ha, Postemergence, scale 0 to 10, 0 no effect, 10 complete control
[22] = Rate 125 g/ha, Postemergence, scale of 0 to 10 where 0 is no effect and 10 is complete control
[23] = Rate 250 g/ha, Postemergence, scale of 0 to 10 where 0 is no effect and 10 is complete control
[24] = Rate 500 g/ha, Postemergence, scale 0 to 10, 0 no effect, 10 complete control
[25] = Rate 1000 g/ha, scale 0 to 10 (0 no effect, 10 complete control)
[26] = Rate 125 g/ha, flood test species, scale 0 to 10 where 0 is no effect and 10 is complete control
[27] = Rate 250 g/ha, flood-test species, scale 0 to 10, 0 is no effect, 10 is complete control
[28] = Rate 500 g/ha, flood test species, scale 0 to 10 (0 no effect, 10 complete control)

## Cc1ccccc1-n1c(=O)on(C(=O)N(c2ccc3ccccc3c2)C(C)C)c1=O [Compound 306]
[1]; [18]
  Bedstraw plant response rating: 0
[1]; Preemergence, Rate 125 g/ha
  Bedstraw plant response rating (0 to 10 scale): 0
[1]; [19]
  Bedstraw plant response rating: 0
[1]; [20]
  Bedstraw plant response rating: 0
[1]; [21]
  Bedstraw plant response rating: 0
[1]; [22]
  Bedstraw plant response rating: 0
[1]; [23]
  Plant response rating, Bedstraw: 0
[1]; [24]
  Bedstraw plant response rating: 0
[2]; [25]
  Ducksalad plant response rating: 0
[2]; [26]
  Ducksalad plant response rating: 0
[2]; [27]
  Ducksalad plant response rating: 0
[2]; [28]
  Ducksalad plant response rating: 0
[3]; [18]
  Corn plant response rating: 0
[3]; Preemergence, Rate 125 g/ha
  Corn plant response rating (0 to 10 scale): 0
[3]; [19]
  Corn plant response rating: 0
[3]; [20]
  Corn plant response rating: 0
[3]; [21]
  Corn plant response rating: 0
[3]; [22]
  Corn plant response rating: 0
[3]; [23]
  Plant response rating, Corn: 0
[3]; [24]
  Corn plant response rating: 0
[4]; [18]
  Sugarbeets plant response rating: 0
[4]; Preemergence, Rate 125 g/ha
  Sugarbeets plant response rating (0 to 10 scale): 0
[4]; [19]
  Sugarbeets plant response rating: 0
[4]; [20]
  Sugarbeets plant response rating: 0
[4]; [21]
  Sugarbeets plant response rating: 0
[4]; [22]
  Sugarbeets plant response rating: 0
[4]; [23]
  Plant response rating, Sugarbeets: 0
[5]; [25]
  Barnyardgrass plant response rating: 0
[5]; [26]
  Barnyardgrass plant response rating: 0
[5]; [27]
  Barnyardgrass plant response rating: 0
[5]; [28]
  Barnyardgrass plant response rating: 0
[6]; [18]
  Nutsedge plant response rating: 0
[6]; Preemergence, Rate 125 g/ha
  Nutsedge plant response rating (0 to 10 scale): 0
[6]; [19]
  Nutsedge plant response rating: 0
[6]; [20]
  Nutsedge plant response rating: 0
[6]; [21]
  Nutsedge plant response rating: 0
[6]; [22]
  Nutsedge plant response rating: 0
[6]; [23]
  Plant response rating, Nutsedge: 0
[7]; [25]
  Rice plant response rating: 0
[7]; [26]
  Rice plant response rating: 0
[7]; [27]
  Rice plant response rating: 0
[7]; [28]
  Rice plant response rating: 0
[8]; [18]
  Blackgrass plant response rating: 0
[8]; Preemergence, Rate 125 g/ha
  Blackgrass plant response rating (0 to 10 scale): 0
[8]; [19]
  Blackgrass plant response rating: 0
[8]; [20]
  Blackgrass plant response rating: 0
[8]; [21]
  Blackgrass plant response rating: 0
[8]; [22]
  Blackgrass plant response rating: 0
[8]; [23]
  Plant response rating, Blackgrass: 0
[8]; [24]
  Blackgrass plant response rating: 0
[9]; [25]
  S. Flatsedge plant response rating: 0
[9]; [26]
  S. Flatsedge plant response rating: 0
[9]; [27]
  S. Flatsedge plant response rating: 0
[9]; [28]
  S. Flatsedge plant response rating: 0
[10]; [18]
  Crabgrass plant response rating: 0
[10]; Preemergence, Rate 125 g/ha
  Crabgrass plant response rating (0 to 10 scale): 0
[10]; [19]
  Crabgrass plant response rating: 0
[10]; [20]
  Crabgrass plant response rating: 0
[10]; [21]
  Crabgrass plant response rating: 0
[10]; [22]
  Crabgrass plant response rating: 0
[10]; [23]
  Plant response rating, Crabgrass: 0
[11]; [18]
  Velvetleaf plant response rating: 0
[11]; Preemergence, Rate 125 g/ha
  Velvetleaf plant response rating (0 to 10 scale): 0
[11]; [19]
  Velvetleaf plant response rating: 0
[11]; [20]
  Velvetleaf plant response rating: 0
[11]; [21]
  Velvetleaf plant response rating: 0
[11]; [22]
  Velvetleaf plant response rating: 0
[11]; [23]
  Plant response rating, Velvetleaf: 0
[12]; [18]
  Soybean plant response rating: 0
[12]; Preemergence, Rate 125 g/ha
  Soybean plant response rating (0 to 10 scale): 0
[12]; [19]
  Soybean plant response rating: 0
[12]; [20]
  Soybean plant response rating: 0
[12]; [21]
  Soybean plant response rating: 1
[12]; [22]
  Soybean plant response rating: 2
[12]; [23]
  Plant response rating, Soybean: 2
[13]; [18]
  Wild oats plant response rating: 0
[13]; Preemergence, Rate 125 g/ha
  Wild oats plant response rating (0 to 10 scale): 0
[13]; [19]
  Wild oats plant response rating: 0
[13]; [20]
  Wild oats plant response rating: 0
[13]; [21]
  Wild oats plant response rating: 0
[13]; [22]
  Wild oats plant response rating: 0
[13]; [23]
  Plant response rating, Wild oats: 0
[14]; [18]
  Cocklebur plant response rating: 0
[14]; Preemergence, Rate 125 g/ha
  Cocklebur plant response rating (0 to 10 scale): 0
[14]; [19]
  Cocklebur plant response rating: 0
[14]; [20]
  Cocklebur plant response rating: 0
[14]; [21]
  Cocklebur plant response rating: 0
[14]; [22]
  Cocklebur plant response rating: 0
[14]; [23]
  Plant response rating, Cocklebur: 0
[14]; [24]
  Cocklebur plant response rating: 0
[15]; [18]
  Rape plant response rating: 0
[15]; Preemergence, Rate 125 g/ha
  Rape plant response rating (0 to 10 scale): 0
[15]; [19]
  Rape plant response rating: 0
[15]; [20]
  Rape plant response rating: 0
[15]; [21]
  Rape plant response rating: 0
[15]; [22]
  Rape plant response rating: 0
[15]; [23]
  Plant response rating, Rape: 0
[16]; [18]
  Wheat plant response rating: 0
[16]; Preemergence, Rate 125 g/ha
  Wheat plant response rating (0 to 10 scale): 0
[16]; [19]
  Wheat plant response rating: 0
[16]; [20]
  Wheat plant response rating: 0
[16]; [21]
  Wheat plant response rating: 0
[16]; [22]
  Wheat plant response rating: 0
[16]; [23]
  Plant response rating, Wheat: 0
[17]; [18]
  B. signalgrass plant response rating: 0
[17]; Preemergence, Rate 125 g/ha
  B. signalgrass plant response rating (0 to 10 scale, 0 is no effect, 10 is complete control): 0
[17]; [19]
  B. signalgrass plant response rating: 0
[17]; [20]
  B. signalgrass plant response rating: 0
[17]; [21]
  B. signalgrass plant response rating: 0
[17]; [22]
  B. signalgrass plant response rating: 0
[17]; [23]
  Plant response rating, B. signalgrass: 0
[17]; [24]
  B. signalgrass plant response rating: 0
